The target in assay [1] is T1, Neurotensin receptor type 1 (Homo sapiens, UniProt P30989). As to the kind of experiment: Antagonist activity at human NTS1 receptor expressed in CHOK1 cells assessed as inhibition of intracellular calcium elevation pretreated 30 mins before with SR-48692 by FLIPR assay. Format: functional, cell-based, CHO-K1. For orientation: Calcium assays in cells follow changes in intracellular calcium, usually with a dye or a luminescent sensor.

The target of assay [2] is T1, Neurotensin receptor type 1. As to the kind of experiment: Displacement of [3H]neurotensin from human NTS1 receptor expressed in CHOK1 cells after 60 mins by beta plate liquid scintillation counter. It counts as cell-based. (In general: Loss of bound radioactivity is the signal in a displacement assay; it reports binding, not function.)

Calls of active or inactive are those of the source. No cut-off for these calls is given here.

Broadly, the IC50 is the concentration that inhibits the measured activity by half. A word on the Ki: it is a measure of affinity in units of concentration, obtained from inhibition or displacement.

T1 sequence (P30989 whole entry): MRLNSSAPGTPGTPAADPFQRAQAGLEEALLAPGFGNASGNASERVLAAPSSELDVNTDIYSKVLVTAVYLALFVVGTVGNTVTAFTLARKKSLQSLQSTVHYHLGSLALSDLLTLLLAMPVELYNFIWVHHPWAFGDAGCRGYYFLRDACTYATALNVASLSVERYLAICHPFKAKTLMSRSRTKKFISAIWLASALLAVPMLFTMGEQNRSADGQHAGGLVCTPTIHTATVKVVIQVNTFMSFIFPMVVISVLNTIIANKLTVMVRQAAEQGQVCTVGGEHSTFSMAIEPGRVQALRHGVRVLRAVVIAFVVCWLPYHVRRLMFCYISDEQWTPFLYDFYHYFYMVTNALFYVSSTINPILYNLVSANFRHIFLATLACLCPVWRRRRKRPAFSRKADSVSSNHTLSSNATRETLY

In the case of `CC(C)CC(NC(=O)OCC1c2ccccc2-c2ccccc21)C(=O)O` (centres undefined), in assay [1], the IC50 turned out to be 3.79 nM. The result in assay [2] (CHO-K1) was inactive.
For the compound `CC(C)C[C@@H](NC(=O)Cn1ccc2cc(NS(=O)(=O)c3cccc4cccnc34)ccc21)C(=O)O`, the IC50 in assay [1] is 3.76 nM. The compound also displayed a Ki in assay [2] of 545 nM.

Source of the values: ChEMBL document CHEMBL1143436 (Bioorg Med Chem Lett, 2008).
